From patent US20260132127A1, “NOVEL SPIRO COMPOUND” (MITSUBISHI TANABE PHARMA CORPORATION, priority 2021, published 2026)

Molecular target: T1, human TRH-DE (Homo sapiens, UniProt Q9UKU6)
T1 construct: expressed in transfected cells; host or cells: Expi 293 cells (transient expression), membrane fraction
T1 sequence (Q9UKU6 1-1069): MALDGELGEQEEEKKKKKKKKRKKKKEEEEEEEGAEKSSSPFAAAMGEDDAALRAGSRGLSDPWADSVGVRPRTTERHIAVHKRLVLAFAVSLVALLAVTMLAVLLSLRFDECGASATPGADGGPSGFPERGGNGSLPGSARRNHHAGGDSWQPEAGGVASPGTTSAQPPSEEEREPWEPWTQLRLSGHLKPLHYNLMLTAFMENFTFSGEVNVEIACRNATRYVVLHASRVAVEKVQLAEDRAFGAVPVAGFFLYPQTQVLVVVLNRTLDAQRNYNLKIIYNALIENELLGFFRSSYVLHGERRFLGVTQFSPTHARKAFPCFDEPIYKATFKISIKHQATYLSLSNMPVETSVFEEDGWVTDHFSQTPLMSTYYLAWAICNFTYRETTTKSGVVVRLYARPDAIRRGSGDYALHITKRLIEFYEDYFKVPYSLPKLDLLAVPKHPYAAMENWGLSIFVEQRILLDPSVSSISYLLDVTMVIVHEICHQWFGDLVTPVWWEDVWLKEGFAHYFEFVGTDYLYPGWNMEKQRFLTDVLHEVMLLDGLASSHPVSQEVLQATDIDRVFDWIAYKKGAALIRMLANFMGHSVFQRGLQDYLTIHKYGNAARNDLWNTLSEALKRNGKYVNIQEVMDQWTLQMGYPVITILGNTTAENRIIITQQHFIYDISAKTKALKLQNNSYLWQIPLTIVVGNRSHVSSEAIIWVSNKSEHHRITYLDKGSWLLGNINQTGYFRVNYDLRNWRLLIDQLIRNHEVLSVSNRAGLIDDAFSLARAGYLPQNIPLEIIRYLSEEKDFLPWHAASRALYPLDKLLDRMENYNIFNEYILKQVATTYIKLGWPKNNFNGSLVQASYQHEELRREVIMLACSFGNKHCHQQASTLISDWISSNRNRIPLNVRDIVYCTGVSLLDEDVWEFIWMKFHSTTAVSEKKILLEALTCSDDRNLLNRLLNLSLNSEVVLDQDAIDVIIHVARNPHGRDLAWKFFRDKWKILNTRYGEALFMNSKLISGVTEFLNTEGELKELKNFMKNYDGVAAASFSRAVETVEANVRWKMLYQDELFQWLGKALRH
Assay: TRH-DE inhibition test (RapidFire MS measurement of product Cyclo (His-Pro))
Assay type: biochemical
Conditions: membrane fraction of Expi 293 cells expressing human TRH-DE; 10 μM TRH substrate; room temperature, 2 hours; 16-point concentration test
How it was run: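 Inhibition derived from product/internal-standard ratios of Cyclo(His-Pro), quantified by RapidFire triple-quadrupole MS after acetonitrile:methanol quench, with IC50 fitted over 16 concentrations. Enzyme source: membranes of Expi 293 cells transiently expressing human TRH-DE, 4 μg/ml, pH 7.4 phosphate buffer. Incubation with 10 μM substrate ran 2 h at room temperature.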

Row | IC50 | Compound
1 | 0.013 µM | C[C@@H]1CCn2nc(C3CC3)c(F)c2C(=O)N1C1CC2(C1)CN(S(=O)(=O)c1ccccc1F)C2 [Example 197]
2 | 0.014 µM | C[C@@H]1CCn2nc3c(c2C(=O)N1C1CC2(C1)CN(S(=O)(=O)c1ccccc1F)C2)CCC3 [Example 198]
3 | 0.021 µM | CCn1ncc2c1OC[C@@H](C)N(C1CC3(C1)CN(S(=O)(=O)c1ccccc1F)C3)C2=O [Example 199]
4 | 0.019 µM | C[C@@H]1COc2c(cnn2CC(F)F)C(=O)N1C1CC2(C1)CN(S(=O)(=O)c1ccccc1F)C2 [Example 200]
5 | 0.02 µM | C[C@@H]1COc2c(cnn2CC(F)(F)F)C(=O)N1C1CC2(C1)CN(S(=O)(=O)c1ccccc1F)C2 [Example 201]
6 | 0.019 µM | C[C@@H]1COc2c(cnn2C2CC2)C(=O)N1C1CC2(C1)CN(S(=O)(=O)c1ccccc1F)C2 [Example 202]
7 | 0.034 µM | C[C@@H]1COc2c(cnn2C(C)(C)C)C(=O)N1C1CC2(C1)CN(S(=O)(=O)c1ccccc1F)C2 [Example 203]
8 | 0.034 µM | C[C@@H]1COc2c(cnn2-c2ccccc2)C(=O)N1C1CC2(C1)CN(S(=O)(=O)c1ccccc1F)C2 [Example 204]
9 | 0.014 µM | Cc1nn(C)c2c1C(=O)N(C1CC3(C1)CN(S(=O)(=O)c1ccccc1F)C3)[C@H](C)CO2 [Example 205]
10 | 0.005 µM | C[C@@H]1COc2c(c(C3CC3)nn2C)C(=O)N1C1CC2(C1)CN(S(=O)(=O)c1ccccc1F)C2 [Example 206]
11 | 0.011 µM | Cc1nn(C2CC2)c2c1C(=O)N(C1CC3(C1)CN(S(=O)(=O)c1ccccc1F)C3)[C@H](C)CO2 [Example 207]
12 | 0.014 µM | C[C@@H]1COc2c(c(C3CC3)nn2C2CC2)C(=O)N1C1CC2(C1)CN(S(=O)(=O)c1ccccc1F)C2 [Example 208]
13 | 0.022 µM | C[C@@H]1COc2nn(C)cc2C(=O)N1C1CC2(C1)CN(S(=O)(=O)c1ccccc1F)C2 [Example 209]
14 | 0.021 µM | C[C@@H]1COc2nn(C3CC3)cc2C(=O)N1C1CC2(C1)CN(S(=O)(=O)c1ccccc1F)C2 [Example 210]
15 | 0.013 µM | Cc1c2c(nn1C)OC[C@@H](C)N(C1CC3(C1)CN(S(=O)(=O)c1ccccc1F)C3)C2=O [Example 211]
16 | 0.023 µM | C[C@@H]1COc2nn(C)c(Br)c2C(=O)N1C1CC2(C1)CN(S(=O)(=O)c1ccccc1F)C2 [Example 212]
17 | 0.011 µM | C[C@@H]1CCn2c(cnc2Br)C(=O)N1C1CC2(C1)CN(S(=O)(=O)c1ccccc1F)C2 [Example 214]
18 | 0.026 µM | C[C@@H]1CCn2cnc(Br)c2C(=O)N1C1CC2(C1)CN(S(=O)(=O)c1ccccc1F)C2 [Example 215]
19 | 0.046 µM | Cc1nc(Br)n2c1C(=O)N(C1CC3(C1)CN(S(=O)(=O)c1ccccc1F)C3)[C@H](C)CC2 [Example 216]
20 | 0.035 µM | C[C@@H]1COc2conc2C(=O)N1C1CC2(C1)CN(S(=O)(=O)c1ccccc1F)C2 [Example 217]
21 | 0.037 µM | Cc1onc2c1C(=O)N(C1CC3(C1)CN(S(=O)(=O)c1ccccc1F)C3)[C@H](C)CO2 [Example 218]
22 | 0.038 µM | C[C@@H]1COc2noc(C(C)(C)C)c2C(=O)N1C1CC2(C1)CN(S(=O)(=O)c1ccccc1F)C2 [Example 219]
23 | 0.012 µM | C[C@@H]1COc2noc(C3CC3)c2C(=O)N1C1CC2(C1)CN(S(=O)(=O)c1ccccc1F)C2 [Example 220]
24 | 0.988 µM | C[C@@H]1CCN2CCC[C@H]2C(=O)N1C1CC2(C1)CN(S(=O)(=O)c1ccccc1F)C2 [Example 221]

Row | IC50 | Compound
25 | 0.449 µM | C[C@@H]1CCN2CCC[C@H]2C(=O)N1C1CC2(C1)CN(S(=O)(=O)c1ccccc1F)C2 [Example 222]
26 | 0.018 µM | C[C@@H]1Cn2nc(Cl)cc2C(=O)N1C1CC2(C1)CN(S(=O)(=O)c1ccccc1F)C2 [Example 223]
27 | 0.041 µM | C[C@@H]1Cn2nc(C(C)(F)F)cc2C(=O)N1C1CC2(C1)CN(S(=O)(=O)c1ccccc1F)C2 [Example 224]
28 | 0.011 µM | C[C@@H]1Cn2nc(C3CC3)cc2C(=O)N1C1CC2(C1)CN(S(=O)(=O)c1ccccc1F)C2 [Example 225]
29 | 0.016 µM | C[C@@H]1Cn2nc(C3(F)CC3)cc2C(=O)N1C1CC2(C1)CN(S(=O)(=O)c1ccccc1F)C2 [Example 226]
30 | 0.009 µM | C[C@@H]1Cn2nc(C3(C(F)(F)F)CC3)cc2C(=O)N1C1CC2(C1)CN(S(=O)(=O)c1ccccc1F)C2 [Example 227]
31 | 0.048 µM | C[C@@H]1Cn2nc(C(F)(F)F)cc2C(=O)N1C1CC2(C1)CN(S(=O)(=O)c1ccccc1F)C2 [Example 228]
32 | 0.033 µM | C[C@@H]1Cn2ncc(Cl)c2C(=O)N1C1CC2(C1)CN(S(=O)(=O)c1ccccc1F)C2 [Example 229]
33 | 0.019 µM | C[C@@H]1Cn2ncc(Br)c2C(=O)N1C1CC2(C1)CN(S(=O)(=O)c1ccccc1F)C2 [Example 230]
34 | 0.013 µM | C[C@@H]1Cn2nc(C3CC3)c(F)c2C(=O)N1C1CC2(C1)CN(S(=O)(=O)c1ccccc1F)C2 [Example 231]
35 | 0.021 µM | C[C@@H]1Cn2nc(F)c(Br)c2C(=O)N1C1CC2(C1)CN(S(=O)(=O)c1ccccc1F)C2 [Example 232]
36 | 0.031 µM | C[C@@H]1Cn2cnc(Br)c2C(=O)N1C1CC2(C1)CN(S(=O)(=O)c1ccccc1F)C2 [Example 233]
37 | 0.004 µM | C[C@@H]1COc2nc([C@H]3C[C@H]3F)sc2C(=O)N1C1CC2(C1)CN(S(=O)(=O)c1ccccc1F)C2 [Example 234, (6R)-2-[(1S,2R)-2-fluorocyclopropyl]-7-[2-(2-fluorophenyl)sulfonyl-2-azaspiro[3.3]heptan-6-yl]-6-methyl-5,6-dihydrothiazolo[5,4-f][1,4]oxazepin-8-one]
38 | 0.003 µM | C[C@@H]1COc2nc([C@@H]3C[C@H]3F)sc2C(=O)N1C1CC2(C1)CN(S(=O)(=O)c1ccccc1F)C2 [Example 235, (6R)-2-[(1R,2R)-2-fluorocyclopropyl]-7-[2-(2-fluorophenyl)sulfonyl-2-azaspiro[3.3]heptan-6-yl]-6-methyl-5,6-dihydrothiazolo[5,4-f][1,4]oxazepin-8-one]
39 | 0.002 µM | C[C@@H]1COc2nc([C@@H]3C[C@@H]3F)sc2C(=O)N1C1CC2(C1)CN(S(=O)(=O)c1ccccc1F)C2 [Example 236, (6R)-2-[(1R,2S)-2-fluorocyclopropyl]-7-[2-(2-fluorophenyl)sulfonyl-2-azaspiro[3.3]heptan-6-yl]-6-methyl-5,6-dihydrothiazolo[5,4-f][1,4]oxazepin-8-one]
40 | 0.003 µM | C[C@@H]1COc2nc([C@H]3C[C@@H]3F)sc2C(=O)N1C1CC2(C1)CN(S(=O)(=O)c1ccccc1F)C2 [Example 237, (6R)-2-[(1S,2S)-2-fluorocyclopropyl]-7-[2-(2-fluorophenyl)sulfonyl-2-azaspiro[3.3]heptan-6-yl]-6-methyl-5,6-dihydrothiazolo[5,4-f][1,4]oxazepin-8-one]
41 | 0.357 µM | C[C@@H]1Cn2c(cnc2C(F)(F)F)C(=O)N1C1CC2(C1)CN(S(=O)(=O)c1ccccc1F)C2 [Example 238, (6R)-7-[2-(2-fluorophenyl)sulfonyl-2-azaspiro[3.3]heptan-6-yl]-6-methyl-3-(trifluoromethyl)-5,6-dihydroimidazo[1,5-a]pyrazin-8-one]
42 | 0.011 µM | CC1COc2ccccc2C(=O)N1C1CC2(C1)CN(S(=O)(=O)c1ccccc1F)C2 (stereo not drawn) [Example 239, 4-[2-(2-fluorophenyl)sulfonyl-2-azaspiro[3.3]heptan-6-yl]-3-methyl-2,3-dihydro-1,4-benzoxazepin-5-one]
43 | 0.014 µM | CC1Cc2ccccc2C(=O)N1C1CC2(C1)CN(S(=O)(=O)c1ccccc1F)C2 (stereo not drawn) [Example 240]
44 | 0.616 µM | Cc1nn(C2CC3(C2)CN(S(=O)(=O)c2ccccc2)C3)c(=O)c2ccccc12 [Example 241]
45 | 0.655 µM | Cc1nn(C2CC3(C2)CN(S(=O)(=O)c2ccccc2F)C3)c(=O)c2ccccc12 [Example 242]
46 | 0.436 µM | Cc1nn(C2CC3(C2)CN(S(=O)(=O)c2ccccc2F)C3)c(=O)c2ncccc12 [Example 243]
47 | 0.042 µM | O=C1c2ccccc2C2(CC2)N1C1CC2(C1)CN(S(=O)(=O)c1ccccc1F)C2 [Example 244]
48 | 0.002 µM | CCN1C[C@@H](C)N(C2CC3(C2)CN(S(=O)(=O)c2ccccc2F)C3)C(=O)c2ncccc21 [Example 245, (3R)-1-ethyl-4-[2-(2-fluorophenyl)sulfonyl-2-azaspiro[3.3]heptan-6-yl]-3-methyl-2,3-dihydropyrido[3,2-e][1,4]diazepin-5-one]
